Data taken from patent US8518859B2, “Method for increasing yield of staple food crop” (National University Corporation Shizuoka University, priority 2009, dated 2013).
Marks after values point to notes of the source that are not given here.

Key:
[1] = system: Rice (cultivar: "Nipponbare"); assay: Yield-increasing effect in soil culture of rice 3, treatment before planting (Example 4); assay type: in vivo, rice (genus Oryza)
Procedure: Rice (cultivar: “Nipponbare”) was used in the test. Seeds thereof were sown in a nursery box, and after 16 days of cultivation, the resulting rice seedlings were transplanted to a pot (1/5000-a) and hydroponically cultured in a culture medium added with the AHX (1 mM) synthesized in the above for 2 weeks before settled-planting.
After the above-described hydroponic culture, the resulting seedlings were settled-planted in soil (in 1/5000-a pot) which contains a fertilizer containing N (1,440 mg), P2O5 (12 mg), K2O (760 mg) and CaO (806 mg). and soil-cultured from Jun. 10, 2009 to Sep. 29, 2009 in the same manner as in Example 1. During the soil culture period, no treatment with AHX was performed, and water and nutrients were supplied once per day. It is noted here that the culture medium was not replaced.
(§1) The cereal crops obtained by the soil culture were dried for 2 weeks and the following items were measured: brown rice mass; water content of brown rice; size and number of brown rice (per plant); panicle length; culm length; number of panicles; and mass of the above-ground part (n=6).

[2] = system: Rice (cultivar: "Nipponbare"); assay: Yield-increasing effect in hydroponic culture of rice (Example 1); assay type: in vivo, rice (genus Oryza)
Procedure: Rice (cultivar: “Nipponbare”) was used in the test. Seeds thereof were sown in a nursery box, and after 20 days of cultivation, the resulting rice seedlings were transplanted one by one to a pot (1/5000-a) and cultivated for 1 week with tap water.
After the cultivation with tap water, the thus obtained rice plants were cultured in a culture medium added with the AHX (50 μM), which was synthesized in the above, in an outdoor environment over a period of 97 days starting in July.
During the periods from the 8th day to the 32nd day and the period from the 73rd day to the 97th day after the transplantation, the culture was carried out in a medium having a half concentration of the undiluted culture medium, and during the period from the 33rd day to the 72nd day, the undiluted culture medium was used.
Water and nutrients were supplied once every 3 days. As the medium used for the addition, the culture medium for the AHX-treated section and the culture medium for the control section were respectively used in the AHX-treated section and the control section. It is noted here, however, that the culture medium was replaced once a week in the case of hydroponic culture.
The cereal crops obtained by the culture were dried for 2 weeks and the following items were measured: brown rice mass; water content, carbon content and nitrogen content of brown rice; size and number of brown rice (per plant); leaf length; culm length; panicle length; number of panicles; tiller number; and mass of the above-ground and underground parts. Here, the size of brown rice means the mass per grain determined from the brown rice mass (g/100 brown rice grains) and the number of brown rice refers to a value obtained by dividing the brown rice weight (g/plant) by the brown rice weight (g/100 brown rice grains) (number of plants n=6).

wheat (Nourin 61) = assay: Yield-increasing effect in wheat (Example 6); assay type: in vivo, wheat (genus Triticum); conditions: 6 pots
Procedure: In 1/2000-a pots having crushed gravel in the bottom, 6 kg of a paddy-rice nursery soil was placed and, as a base fertilizer, 5-7-6 (N—P—K) was added in an amount of 4 g. The soil was sufficiently watered and 3 days later, 10 grains of wheat (Nourin 61) were sown in each pot. The wheat was cultured providing 300 ml of water once a week, and the seedlings were thinned 2 weeks after germination to leave 5 seedlings showing good growth. In the subsequent two weeks, a total of 6 pots were each treated once a week with AHX (5 μM), AHX (50 μM), AHX (1 mM), ICA (2 μM) or water only (control). Then, after culturing for 9 weeks providing 300 ml of just water once a week, the culture was continued for another 12 weeks by changing the amount of water to 500 ml once a week. It is noted here that, 2 weeks after the change was made in the amount of water, 0.75 g of ammonium sulfate was added to each pot as a panicle fertilizer. Further, the AHX (1 mM) treatment pots were subjected to an additional treatment with AHX (1 mM) for 2 weeks after the addition of the panicle fertilizer. The culture was carried out from Oct. 26, 2009 to May 12, 2010. After the completion of the culture, drying was performed for two weeks and the total wheat yield (g/5 plants) was measured.

rice (Nipponbare) [3] = assay: Yield-increasing effect in soil culture of rice 1 (Example 2); assay type: in vivo, rice (genus Oryza); conditions: AHX 50 μM
Procedure: (§2) Soil culture was carried out for 97 days starting in July in the same manner as in Example 1, except that seedlings of rice (Nipponbare) were transplanted one by one to a soil (in 1/5000-a pot) which contains a fertilizer containing N (1,440 mg), P2O5 (12 mg), K2O (760 mg) and CaO (806 mg).
Water and nutrients were supplied once a day. As the medium used for the addition, the culture medium for the AHX (50 μM)-treated section and the culture medium for the control section were respectively used in the AHX (50 μM)-treated section and the control section. It is noted here that, unlike the case of hydroponic culture, the culture medium was not replaced.
The cereal crops obtained by the soil culture were dried for 2 weeks and the following items were measured in the same manner as in Example 1: brown rice mass; water content, carbon content and nitrogen content of brown rice; size and number of brown rice (per plant); leaf length; culm length; panicle length; number of panicles; tiller number; and mass of the above-ground part (n=7).

[4] = system: seed potato (cultivar: "Danshaku"); assay: Yield-increasing effect in potato (Example 5); assay type: in vivo, potato (genus Solanum)
Procedure: A seed potato (cultivar: “Danshaku”) was cut into pieces of 30 g to 35 g in weight and they were each allowed to take roots in soil (in 1/2000-a pot) which contains a fertilizer containing N (960 mg), P2O5 (480 mg), K2O (640 mg) and MgO (320 mg). After 2-weeks of cultivation with tap water (after an above-ground part appeared), 2.74 mg (20 μmol) of AHX was dissolved in tap water and added to the pot every week. The Danshaku potato was cultured in an outdoor environment over a period of 12 weeks starting in January. The control section was treated with tap water only.
After 12 weeks, the Danshaku potato was harvested to measure the tuber mass (for the whole potato and a group consisting of potatoes having a weight of not less than 20 g that were extracted), the length and mass of the above-ground part and the leaf length (n=5).

rice (Nipponbare) [5] = assay: Yield-increasing effect in soil culture of rice 2 (Example 3); assay type: in vivo, rice (genus Oryza); conditions: for Brown rice weight (g/plant): soil culture Jun. 10 to Sep. 29, n=6; for Brown rice weight (g/100 brown rice grains) / Culm length (cm) / Mass of the above-ground part (g/plant) / Number of panicles (/plant) / Panicle length (cm): n=6; for Brown rice size: mass per grain
Procedure: as §2, with “from Jun. 10, 2009 to Sep. 29, 2009” for “for 97 days starting in July”, “(Nipponbare) obtained by a 30-day cultivation” for “(Nipponbare)”
Water and nutrients were supplied once a day. As the medium used for the addition, the culture medium for the AHX (5 μM)-treated section, the culture medium for the ICA (2 μM)-treated section and the culture medium the control section were respectively used in the AHX (5 μM)-treated section, the ICA (2 μM)-treated section and the control section. It is noted here that, unlike the case of hydroponic culture, the culture medium was not replaced.
as §1

[6] = 1 mM-treatment before planting, soil culture, n=6
[7] = AHX 50 μM, hydroponic culture 97 days, n=6
[8] = 20 μmol AHX per pot every week, 12 weeks, n=5

O=c1[nH]nnc2nc[nH]c12 [AHX, 2-azahypoxanthine]
Number of brown rice (/plant) ([1]; 1 mM-treatment before planting, soil culture): 2027 /plant | Brown rice weight (g/100 brown rice grains) [1, 6]: 2.15 g/100 brown rice grains | Culm length (cm) [1, 6]: 86 cm | Mass of the above-ground part (g/plant) [1, 6]: 154 *^ g/plant | Number of panicles (/plant) [1, 6]: 33 /plant | Panicle length (cm) [1, 6]: 21.1 cm | Brown rice size ([1]; 1 mM-treatment before planting, soil culture, mass per grain): 21.5 mg | Increase of brown rice weight per plant ([1]; 1 mM-treatment before planting, vs control): about 18% | Brown rice weight (g/plant) ([1]; 1 mM-treatment for 2 weeks before planting, then soil culture without AHX, n=6): 43.6 * g/plant | Brown rice weight (g/plant) ([2]; AHX 50 μM in culture medium, hydroponic culture 97 days, n=6): 34.6 * g/plant | Number of brown rice (/plant) ([2]; AHX 50 μM, hydroponic culture 97 days): 1544 /plant | Brown rice weight (g/100 brown rice grains) [2, 7]: 2.24 * g/100 brown rice grains | Culm length (cm) [2, 7]: 60.7 cm | Leaf length (cm) [2, 7]: 72.2 * cm | Mass of the above-ground part (g/plant) [2, 7]: 103 *^ g/plant | Mass of underground part (g/plant) [2, 7]: 8.56 g/plant | Number of panicles (/plant) [2, 7]: 30.8 * /plant | Panicle length (cm) [2, 7]: 21.4 * cm | Tiller number (/plant) [2, 7]: 25.1 /plant | Brown rice size ([2]; AHX 50 μM, hydroponic culture 97 days, mass per grain): 22.4 mg | Increase of brown rice weight per plant ([2]; AHX 50 μM, hydroponic culture, vs control): about 6% | Seed Yield (g/5 plants) (wheat (Nourin 61); 5 μM, once a week for two weeks, soil pots): 44.66 g/5 plants | Seed Yield (g/5 plants) (wheat (Nourin 61); 50 μM, once a week for two weeks, soil pots): 45.68 g/5 plants | Seed Yield (g/5 plants) (wheat (Nourin 61); 1 mM, once a week for two weeks plus additional 2 weeks after panicle fertilizer): 46.79 g/5 plants | Number of brown rice (/plant) (rice (Nipponbare) [3]; soil culture 97 days): 1864 /plant | Brown rice weight (g/100 brown rice grains) (rice (Nipponbare) [3]; soil culture 97 days, n=7): 2.28 g/100 brown rice grains | Brown rice weight (g/plant) (rice (Nipponbare) [3]; soil culture 97 days, n=7): 42.5 * g/plant | Culm length (cm) (rice (Nipponbare) [3]; soil culture 97 days, n=7): 70.0 cm | Leaf length (cm) (rice (Nipponbare) [3]; soil culture 97 days, n=7): 76.5 cm | Mass of the above-ground part (g/plant) (rice (Nipponbare) [3]; soil culture 97 days, n=7): 122 *^ g/plant | Number of panicles (/plant) (rice (Nipponbare) [3]; soil culture 97 days, n=7): 24.5 /plant | Panicle length (cm) (rice (Nipponbare) [3]; soil culture 97 days, n=7): 21.1 cm | Tiller number (/plant) (rice (Nipponbare) [3]; soil culture 97 days, n=7): 26.2 /plant | Brown rice size (rice (Nipponbare) [3]; soil culture 97 days, mass per grain): 22.8 mg | Increase of brown rice weight per plant (rice (Nipponbare) [3]; soil culture, vs control): about 10% | Leaf length (cm) [4, 8]: 7 cm | Length of the above-ground part (cm) [4, 8]: 24 cm | Mass of the above-ground part (g/plant) [4, 8]: 30 g/plant | Total mass (g · potatoes of not less than 20 g/plant) [4, 8]: 85 * g · potatoes of not less than 20 g/plant | Total mass (g/plant) of tubers ([4]; 2.74 mg (20 μmol) AHX per pot every week, 12 weeks, soil, n=5): 95 * g/plant | Increase of total mass of potatoes ([4]; treated with AHX for 12 weeks, vs control): about 19% | Increase of mass, only potatoes of not less than 20 g ([4]; treated with AHX for 12 weeks, vs control section): about 40% | Number of brown rice (/plant) (rice (Nipponbare) [5]; 5 μM, soil culture): 2086 /plant | Brown rice weight (g/plant) (rice (Nipponbare) [5]; 5 μM): 46.3 * g/plant | Brown rice weight (g/100 brown rice grains) (rice (Nipponbare) [5]; 5 μM, soil culture): 2.22 g/100 brown rice grains | Culm length (cm) (rice (Nipponbare) [5]; 5 μM, soil culture): 89.8 cm | Mass of the above-ground part (g/plant) (rice (Nipponbare) [5]; 5 μM, soil culture): 150 g/plant | Number of panicles (/plant) (rice (Nipponbare) [5]; 5 μM, soil culture): 30.8 /plant | Panicle length (cm) (rice (Nipponbare) [5]; 5 μM, soil culture): 20.8 cm | Increase of brown rice weight per plant (rice (Nipponbare) [5]; 5 μM, soil culture, vs control): about 25% | Brown rice size (rice (Nipponbare) [5]; 5 μM, soil culture): 22.2 mg

NC(=O)c1c[nH]cn1 [ICA, imidazole-4-carboxamide]
Seed Yield (g/5 plants) (wheat (Nourin 61); 2 μM, once a week for two weeks, soil pots): 47.99 g/5 plants | Number of brown rice (/plant) (rice (Nipponbare) [5]; 2 μM, soil culture): 2104 /plant | Brown rice weight (g/plant) (rice (Nipponbare) [5]; 2 μM): 46.5 * g/plant | Brown rice weight (g/100 brown rice grains) (rice (Nipponbare) [5]; 2 μM, soil culture): 2.21 g/100 brown rice grains | Culm length (cm) (rice (Nipponbare) [5]; 2 μM, soil culture): 87.2 cm | Mass of the above-ground part (g/plant) (rice (Nipponbare) [5]; 2 μM, soil culture): 152 g/plant | Number of panicles (/plant) (rice (Nipponbare) [5]; 2 μM, soil culture): 30.5 /plant | Panicle length (cm) (rice (Nipponbare) [5]; 2 μM, soil culture): 22.1 cm | Increase of grain weight per plant (rice (Nipponbare) [5]; 2 μM, soil culture, vs control): about 26% | Brown rice size (rice (Nipponbare) [5]; 2 μM, soil culture): 22.1 mg
